This data set has as its target T1, CYP1A2 (Homo sapiens, UniProt P05177).
T1 construct: incubation mixtures containing pooled human liver microsomes (HLMs, XTreme 200, XenoTech); tissue XenoTech XTreme 200; host or cells: pooled human liver microsomes
T1 sequence (P05177 1-516): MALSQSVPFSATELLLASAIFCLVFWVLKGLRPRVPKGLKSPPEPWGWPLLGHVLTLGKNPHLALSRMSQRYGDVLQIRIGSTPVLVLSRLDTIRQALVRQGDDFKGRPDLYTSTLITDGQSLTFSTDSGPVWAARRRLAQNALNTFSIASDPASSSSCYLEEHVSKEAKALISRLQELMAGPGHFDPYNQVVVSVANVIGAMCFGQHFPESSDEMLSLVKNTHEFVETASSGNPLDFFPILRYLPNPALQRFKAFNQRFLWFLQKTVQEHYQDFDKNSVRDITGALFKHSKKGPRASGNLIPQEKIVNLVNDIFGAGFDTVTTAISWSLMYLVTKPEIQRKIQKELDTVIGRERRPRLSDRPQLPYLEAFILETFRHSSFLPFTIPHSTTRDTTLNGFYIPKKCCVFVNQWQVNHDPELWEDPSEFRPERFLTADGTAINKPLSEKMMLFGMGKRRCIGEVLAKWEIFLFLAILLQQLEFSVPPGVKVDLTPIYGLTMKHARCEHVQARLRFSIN
Kind of data set: Inhibition of CYP1A2-catalyzed phenacetin O-deethylation in pooled human liver microsomes. In kind it is in vitro ADME. As to the method:
The inhibitory potential of the five biflavonoids on the metabolism of nine P450 probe substrates was evaluated using previously developed methods with minor modifications. Biflavonoids were dissolved in methanol. The final concentration of methanol in the incubation mixture was 1.0% (v/v). We used these P450 probe substrates: phenacetin for CYP1A2, coumarin for CYP2A6, bupropion for CYP2B6, amodiaquine for CYP2C8, diclofenac for CYP2C9, omeprazole for CYP2C19, dextromethorphan for CYP2D6, chlorzoxazone for CYP2E1 and midazolam for CYP3A (Table 1). […] The reaction was stopped by adding 50 μL of ice-cold acetonitrile containing 7 nM trimipramine (internal standard, IS). After centrifugation at 18,000 g (5 min, 4 °C), aliquots of supernatants were analyzed by LC-MS/MS (Shimadzu LCMS 8060 system, Shimadzu, Kyoto, Japan). All microsomal incubations were conducted in triplicate. We used HLMs to determine the mechanisms and constants (Ki values) for […] A inhibition of CYP1A2, CYP2B6, CYP2C8, CYP2C9 and CYP3A. […] The substrates were used at concentrations approximately near to their respective Km values. […] The other conditions were the same as in the cytochrome P450 inhibition study. […] Phenomenex, Torrance, CA, USA) and analyzed using a Shimadzu LCMS 8060 triple-quadrupole mass spectrometer coupled with a Nexera X2 ultra high-performance liquid chromatography system (Shimadzu, Kyoto, Japan) equipped with an electrospray ionization interface. The mobile phase consisted of 0.1% formic acid in water (A) and 0.1% formic acid in acetonitrile (B). […] The flow rate was 0.2 mL/min. Electrospray ionization was performed in positive-ion mode at 4000 V or in negative-ion mode at -3500 V. […] Quantitation was conducted in selected reaction monitoring (SRM) modes with the precursor-to-product ion transition for each metabolite (Table 1 and Table 2). We analyzed the data with Shimadzu LabSolution LC-MS software. The IC50 values were calculated by WinNonlin software (Pharsight, Mountain View, CA, USA). The type of inhibition and the apparent kinetic parameters for inhibitory activity (Ki) were determined by following several criteria: visual inspection of Dixon plots, Lineweaver-Burk double reciprocal plots, and secondary plots of Lineweaver-Burk plots versus biflavonoid concentrations, the size of the sum of squares of the residuals, Akaike Information Criteria values, the S.E. and 95% confidence interval of the parameter estimates from the nonlinear regression analysis using the WinNonlin software. The models tested included competitive, competitive partial, noncompetitive, noncompetitive partial, uncompetitive, uncompetitive partial, and mixed-type inhibition.
For orientation: Liver microsomes are a subcellular fraction often used to study metabolism.

Setting [1] is: substrate phenacetin 100 µM, pooled HLMs, read-out: IC50, P450 1A2.

This note sets out measurements from publication PMC7238120, “Strong and Selective Inhibitory Effects of the Biflavonoid Selamariscina A against CYP2C8 and CYP2C9 Enzyme Activities in Human Liver Microsomes” (Pharmaceutics, 2020).

Read-outs that look alike come from different tables or passages of the source. Some results are limits rather than exact numbers.

What is called IC50 is the concentration that inhibits the measured activity by half. The term Ki denotes a measure of affinity in units of concentration, obtained from inhibition or displacement. A low value points to tighter binding.

As to `O=c1cc(-c2ccc(O)c(-c3c(-c4ccc(O)cc4)oc4cc(O)cc(O)c4c3=O)c2)oc2cc(O)cc(O)c12` [taiwaniaflavone], the IC50 under setting [1] was found to be 6.8 µM. For the compound `O=C1CC(c2cc(-c3c(O)ccc4c(=O)cc(-c5ccc(O)cc5)oc34)c(O)cc2O)Oc2cc(O)cc(O)c21` (centres unmarked) [selamariscina A], the “Mode of Inhibition, CYP1A2 phenacetin” value (HLMs) is “Competitive”. Also, where the note is “HLMs, average ± standard error, triplicate”, affinity was put at a Ki of 3.1 ± 0.6 µM. The IC50 under setting [1] came to 7.4 µM. Take `O=c1cc(-c2ccc(O)cc2)oc2c(-c3c(O)cc(O)c4c(=O)cc(-c5ccc(O)cc5)oc34)c(O)cc(O)c12` [cupressuflavone]: under setting [1], the IC50 turned out to be 5.9 µM. With `O=c1cc(-c2ccc(O)c(-c3c(O)cc4oc(-c5ccc(O)cc5)cc(=O)c4c3O)c2)oc2cc(O)cc(O)c12` [robustaflavone], the IC50 under setting [1] worked out at 4.5 µM. Take `O=c1cc(-c2ccc(O)c(-c3c(O)cc(O)c4c(=O)cc(-c5ccc(O)cc5)oc34)c2)oc2cc(O)cc(O)c12` [amentoflavone]: the IC50 is 4.4 µM. On to `CC(C)(O)c1ccccc1CC[C@@H](SCC1(CC(=O)O)CC1)c1cccc(/C=C/c2ccc3ccc(Cl)cc3n2)c1` [montelukast, reference compound], for which the IC50 under setting [1] was more than 50 µM.
